1 molecule from ChEMBL document CHEMBL4507261, “Data for DCP probe A-192621” (2021) can be followed below.

Active and inactive are the calls of the source. The calls are words filed in the database; no cut-off is given here.

For one assay, the species on record is Rattus norvegicus. The note with it: Compound concentration 10.0 uM.
Assay [1] concerns the target Histamine H1 receptor (Homo sapiens) (UniProt P35367). The note with it: Compound concentration 10.0 uM.
Assay [2] has as its target T1, 5-hydroxytryptamine receptor 3A (Homo sapiens) (UniProt P46098).
T1 sequence (whole entry): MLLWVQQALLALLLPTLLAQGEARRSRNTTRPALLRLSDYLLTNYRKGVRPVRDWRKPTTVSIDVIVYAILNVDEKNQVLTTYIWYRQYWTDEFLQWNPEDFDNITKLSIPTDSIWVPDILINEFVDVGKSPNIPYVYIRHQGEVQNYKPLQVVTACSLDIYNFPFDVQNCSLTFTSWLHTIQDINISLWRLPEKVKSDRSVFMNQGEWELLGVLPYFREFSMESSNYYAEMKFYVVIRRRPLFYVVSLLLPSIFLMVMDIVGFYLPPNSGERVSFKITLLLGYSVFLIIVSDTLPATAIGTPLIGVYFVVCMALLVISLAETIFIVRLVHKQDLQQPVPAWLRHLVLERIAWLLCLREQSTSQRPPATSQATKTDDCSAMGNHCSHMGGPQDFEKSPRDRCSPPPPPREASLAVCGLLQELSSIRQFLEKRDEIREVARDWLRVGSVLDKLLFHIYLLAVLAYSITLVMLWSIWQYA
Conditions: Compound concentration 10.0 uM.

In assay [3] the target is Kappa-type opioid receptor (Homo sapiens) (UniProt P41145). The note with it: Compound concentration 10.0 uM.
Sequence of Kappa-type opioid receptor (Homo sapiens) (P41145 whole entry): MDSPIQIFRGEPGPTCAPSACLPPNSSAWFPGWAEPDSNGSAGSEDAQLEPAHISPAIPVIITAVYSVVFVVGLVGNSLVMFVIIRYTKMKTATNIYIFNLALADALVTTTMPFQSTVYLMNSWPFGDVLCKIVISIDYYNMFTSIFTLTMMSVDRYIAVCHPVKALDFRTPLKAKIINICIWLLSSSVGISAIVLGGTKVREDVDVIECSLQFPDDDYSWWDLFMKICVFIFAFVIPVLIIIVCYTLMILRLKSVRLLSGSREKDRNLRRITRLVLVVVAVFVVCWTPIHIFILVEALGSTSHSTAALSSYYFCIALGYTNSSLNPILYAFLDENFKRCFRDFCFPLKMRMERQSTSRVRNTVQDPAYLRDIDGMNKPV
The target in assay [4] is Alpha-1D adrenergic receptor (Homo sapiens) (UniProt P25100). The note with it: Compound concentration 10.0 uM.
Sequence of Alpha-1D adrenergic receptor (Homo sapiens) (P25100 whole entry): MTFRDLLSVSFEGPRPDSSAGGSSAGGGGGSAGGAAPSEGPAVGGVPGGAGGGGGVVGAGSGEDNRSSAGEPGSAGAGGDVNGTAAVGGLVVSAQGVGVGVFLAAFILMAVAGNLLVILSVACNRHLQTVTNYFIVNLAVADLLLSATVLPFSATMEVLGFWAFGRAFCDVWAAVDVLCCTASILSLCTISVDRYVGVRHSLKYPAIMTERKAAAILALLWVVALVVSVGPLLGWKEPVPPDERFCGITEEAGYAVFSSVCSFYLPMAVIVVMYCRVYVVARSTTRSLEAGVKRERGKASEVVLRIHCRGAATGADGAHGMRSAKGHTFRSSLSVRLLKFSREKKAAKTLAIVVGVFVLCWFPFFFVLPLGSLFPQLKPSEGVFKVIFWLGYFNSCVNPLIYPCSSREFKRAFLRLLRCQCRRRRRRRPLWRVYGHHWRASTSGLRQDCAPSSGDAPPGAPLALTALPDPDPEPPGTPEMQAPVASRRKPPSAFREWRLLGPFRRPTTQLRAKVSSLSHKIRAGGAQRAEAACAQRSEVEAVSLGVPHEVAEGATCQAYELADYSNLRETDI
For assay [5], the target named is D(3) dopamine receptor (Homo sapiens) (UniProt P35462). The note with it: Compound concentration 10.0 uM.
Sequence of D(3) dopamine receptor (Homo sapiens) (P35462 whole entry): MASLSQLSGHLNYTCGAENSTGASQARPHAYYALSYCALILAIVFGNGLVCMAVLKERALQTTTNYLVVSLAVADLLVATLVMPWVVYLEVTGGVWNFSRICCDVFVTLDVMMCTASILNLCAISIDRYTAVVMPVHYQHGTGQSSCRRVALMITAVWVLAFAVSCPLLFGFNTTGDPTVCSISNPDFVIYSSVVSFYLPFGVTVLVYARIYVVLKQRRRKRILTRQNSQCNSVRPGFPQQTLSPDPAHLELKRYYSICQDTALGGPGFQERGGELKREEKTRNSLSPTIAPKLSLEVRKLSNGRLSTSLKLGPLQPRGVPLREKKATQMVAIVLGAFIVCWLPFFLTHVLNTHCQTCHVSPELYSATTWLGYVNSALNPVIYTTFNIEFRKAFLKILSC
Assay [6] concerns the target Muscarinic acetylcholine receptor M3 (Homo sapiens) (UniProt P20309). Conditions: Compound concentration 10.0 uM.
For assay [7], the target named is Alpha-2C adrenergic receptor (Homo sapiens) (UniProt P18825). The note with it: Compound concentration 10.0 uM.
Sequence of Alpha-2C adrenergic receptor (Homo sapiens) (P18825 whole entry): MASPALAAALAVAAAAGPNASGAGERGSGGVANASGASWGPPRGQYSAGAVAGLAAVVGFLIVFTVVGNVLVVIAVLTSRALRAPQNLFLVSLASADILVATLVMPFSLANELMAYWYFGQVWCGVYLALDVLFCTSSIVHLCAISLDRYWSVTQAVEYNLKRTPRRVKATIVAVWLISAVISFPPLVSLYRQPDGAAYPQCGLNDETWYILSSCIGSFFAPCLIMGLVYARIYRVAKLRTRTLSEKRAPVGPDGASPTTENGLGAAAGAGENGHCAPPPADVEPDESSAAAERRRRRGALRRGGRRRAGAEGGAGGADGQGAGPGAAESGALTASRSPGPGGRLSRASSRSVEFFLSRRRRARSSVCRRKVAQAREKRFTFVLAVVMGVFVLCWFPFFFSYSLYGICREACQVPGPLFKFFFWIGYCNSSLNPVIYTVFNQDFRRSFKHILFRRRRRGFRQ
In assay [8] the target is T2, Endothelin receptor type B (Homo sapiens, UniProt P24530). The experiment in a line: EDNRB- dependent phosphatidylinositol hydrolysis assay. The assay is classed as functional.
T2 sequence (P24530 whole entry): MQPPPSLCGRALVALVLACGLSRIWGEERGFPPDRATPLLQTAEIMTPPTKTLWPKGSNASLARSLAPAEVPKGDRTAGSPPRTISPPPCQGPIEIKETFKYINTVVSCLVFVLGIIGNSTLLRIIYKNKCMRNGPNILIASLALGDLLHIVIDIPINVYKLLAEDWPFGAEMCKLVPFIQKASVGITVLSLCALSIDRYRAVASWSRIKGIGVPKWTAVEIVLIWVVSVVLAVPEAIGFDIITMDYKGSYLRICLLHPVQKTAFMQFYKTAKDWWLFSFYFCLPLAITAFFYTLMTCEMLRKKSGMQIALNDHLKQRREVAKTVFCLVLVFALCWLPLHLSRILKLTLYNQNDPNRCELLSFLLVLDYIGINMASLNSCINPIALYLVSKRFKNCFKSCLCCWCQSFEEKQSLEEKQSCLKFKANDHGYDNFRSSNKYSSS
The target of assay [9] is T3, Alpha-2B adrenergic receptor (Homo sapiens) (UniProt P18089).
T3 sequence (whole entry): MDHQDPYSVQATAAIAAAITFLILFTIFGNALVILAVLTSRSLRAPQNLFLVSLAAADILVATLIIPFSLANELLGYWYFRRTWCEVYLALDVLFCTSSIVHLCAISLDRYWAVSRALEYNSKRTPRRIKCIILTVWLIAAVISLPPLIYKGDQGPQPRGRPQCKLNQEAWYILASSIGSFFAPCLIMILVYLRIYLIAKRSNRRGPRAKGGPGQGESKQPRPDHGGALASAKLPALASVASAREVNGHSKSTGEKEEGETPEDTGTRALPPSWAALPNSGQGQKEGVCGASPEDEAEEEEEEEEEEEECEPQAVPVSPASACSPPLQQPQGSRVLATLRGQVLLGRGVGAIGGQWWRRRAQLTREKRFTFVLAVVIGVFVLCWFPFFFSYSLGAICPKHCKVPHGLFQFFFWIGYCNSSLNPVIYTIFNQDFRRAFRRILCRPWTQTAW
Conditions: Compound concentration 10.0 uM.

Assay [10] deals with 5-hydroxytryptamine receptor 2B (Homo sapiens) (UniProt P41595). The note with it: Compound concentration 10.0 uM.
Sequence of 5-hydroxytryptamine receptor 2B (Homo sapiens) (P41595 whole entry): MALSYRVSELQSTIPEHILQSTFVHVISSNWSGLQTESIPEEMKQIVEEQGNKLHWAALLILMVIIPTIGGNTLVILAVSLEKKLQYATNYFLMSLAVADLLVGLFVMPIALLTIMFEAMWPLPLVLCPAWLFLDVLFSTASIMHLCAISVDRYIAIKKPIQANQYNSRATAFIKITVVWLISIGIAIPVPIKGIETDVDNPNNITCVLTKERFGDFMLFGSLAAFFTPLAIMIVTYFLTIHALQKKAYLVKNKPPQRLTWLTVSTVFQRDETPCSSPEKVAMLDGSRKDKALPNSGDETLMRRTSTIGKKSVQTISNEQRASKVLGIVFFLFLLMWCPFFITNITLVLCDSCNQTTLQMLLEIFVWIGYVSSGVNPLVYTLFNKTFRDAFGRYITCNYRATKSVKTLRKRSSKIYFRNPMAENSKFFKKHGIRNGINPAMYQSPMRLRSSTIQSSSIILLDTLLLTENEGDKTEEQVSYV
For assay [11], the target named is T2, Endothelin receptor type B. The experiment in a line: Eurofins cellular functional assay - Antagonist (EDNRB).
In assay [12] the target is D(1A) dopamine receptor (Homo sapiens) (UniProt P21728). Conditions: Compound concentration 10.0 uM.
Sequence of D(1A) dopamine receptor (Homo sapiens) (P21728 whole entry): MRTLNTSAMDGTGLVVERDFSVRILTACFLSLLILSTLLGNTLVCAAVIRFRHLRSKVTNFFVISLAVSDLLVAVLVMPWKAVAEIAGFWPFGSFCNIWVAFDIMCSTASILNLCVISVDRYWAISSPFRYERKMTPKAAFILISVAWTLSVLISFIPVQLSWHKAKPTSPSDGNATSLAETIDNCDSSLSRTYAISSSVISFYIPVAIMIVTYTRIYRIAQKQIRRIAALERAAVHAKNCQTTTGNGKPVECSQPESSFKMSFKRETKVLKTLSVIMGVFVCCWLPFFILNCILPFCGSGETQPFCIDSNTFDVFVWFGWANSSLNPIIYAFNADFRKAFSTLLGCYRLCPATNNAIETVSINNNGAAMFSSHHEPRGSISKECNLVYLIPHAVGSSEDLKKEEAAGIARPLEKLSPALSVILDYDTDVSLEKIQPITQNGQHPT
Assay [13] concerns the target GABA-A receptor; anion channel (Rattus norvegicus) (UniProt O09028+P15431+P18506+P18508+P19969+P20236+P23574+P23576+P28471+P28473+P30191+P62813+P63079+P63138+Q91ZM7+Q9ES14). Conditions: Compound concentration 10.0 uM.
The target of assay [14] is Mu-type opioid receptor (Homo sapiens) (UniProt P35372). The note with it: Compound concentration 10.0 uM.
The target in assay [15] is Sigma non-opioid intracellular receptor 1 (Homo sapiens) (UniProt Q99720). The note with it: Compound concentration 10.0 uM.
Sequence of Sigma non-opioid intracellular receptor 1 (Homo sapiens) (Q99720 whole entry): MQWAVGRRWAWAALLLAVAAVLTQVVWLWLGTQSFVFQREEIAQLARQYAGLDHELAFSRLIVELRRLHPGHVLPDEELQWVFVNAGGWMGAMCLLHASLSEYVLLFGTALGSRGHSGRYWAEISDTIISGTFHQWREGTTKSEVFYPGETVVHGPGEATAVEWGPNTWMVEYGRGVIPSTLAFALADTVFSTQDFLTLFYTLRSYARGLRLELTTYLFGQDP
Assay [16] addresses T4, Muscarinic acetylcholine receptor M5 (Homo sapiens) (UniProt P08912).
T4 sequence (whole entry): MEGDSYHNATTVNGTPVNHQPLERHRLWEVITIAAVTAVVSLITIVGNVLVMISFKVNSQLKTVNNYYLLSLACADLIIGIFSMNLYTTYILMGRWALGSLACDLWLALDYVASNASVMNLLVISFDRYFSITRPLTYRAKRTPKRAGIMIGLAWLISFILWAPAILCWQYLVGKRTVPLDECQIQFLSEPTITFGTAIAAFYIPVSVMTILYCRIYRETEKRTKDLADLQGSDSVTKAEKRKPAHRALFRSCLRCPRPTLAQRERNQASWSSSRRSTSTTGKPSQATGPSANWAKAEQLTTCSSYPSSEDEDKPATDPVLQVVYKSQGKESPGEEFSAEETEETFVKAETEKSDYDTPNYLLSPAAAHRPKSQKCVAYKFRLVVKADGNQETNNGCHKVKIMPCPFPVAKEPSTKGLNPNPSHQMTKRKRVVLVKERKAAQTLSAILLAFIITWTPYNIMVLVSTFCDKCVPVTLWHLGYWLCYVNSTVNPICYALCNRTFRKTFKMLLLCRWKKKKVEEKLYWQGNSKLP
The note with it: Compound concentration 10.0 uM.

Assay [17] deals with Delta-type opioid receptor (Homo sapiens) (UniProt P41143). Conditions: Compound concentration 10.0 uM.
Sequence of Delta-type opioid receptor (Homo sapiens) (P41143 whole entry): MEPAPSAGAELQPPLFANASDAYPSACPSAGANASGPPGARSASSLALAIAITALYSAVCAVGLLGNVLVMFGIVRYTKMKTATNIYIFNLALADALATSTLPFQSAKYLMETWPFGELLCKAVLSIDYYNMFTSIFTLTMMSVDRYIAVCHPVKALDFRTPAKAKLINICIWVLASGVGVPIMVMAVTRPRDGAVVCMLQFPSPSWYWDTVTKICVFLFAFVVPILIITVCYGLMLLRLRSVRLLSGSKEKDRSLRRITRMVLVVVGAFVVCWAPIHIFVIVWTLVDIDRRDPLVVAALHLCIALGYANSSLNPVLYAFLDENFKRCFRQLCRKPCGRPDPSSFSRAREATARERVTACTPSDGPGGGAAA
The target in assay [18] is 5-hydroxytryptamine receptor 5A (Homo sapiens) (UniProt P47898). Conditions: Compound concentration 10.0 uM.
Sequence of 5-hydroxytryptamine receptor 5A (Homo sapiens) (P47898 whole entry): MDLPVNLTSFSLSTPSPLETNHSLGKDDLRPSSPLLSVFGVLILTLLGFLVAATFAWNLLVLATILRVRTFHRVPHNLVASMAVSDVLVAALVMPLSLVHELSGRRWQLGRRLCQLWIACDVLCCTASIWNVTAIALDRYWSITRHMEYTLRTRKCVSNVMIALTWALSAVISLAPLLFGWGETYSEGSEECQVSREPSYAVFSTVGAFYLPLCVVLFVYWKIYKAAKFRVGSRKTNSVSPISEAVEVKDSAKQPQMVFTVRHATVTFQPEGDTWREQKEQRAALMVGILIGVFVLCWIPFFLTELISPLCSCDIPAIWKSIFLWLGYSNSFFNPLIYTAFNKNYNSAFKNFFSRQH

Sequence of Muscarinic acetylcholine receptor M3 (Homo sapiens) (P20309 whole entry, looked up): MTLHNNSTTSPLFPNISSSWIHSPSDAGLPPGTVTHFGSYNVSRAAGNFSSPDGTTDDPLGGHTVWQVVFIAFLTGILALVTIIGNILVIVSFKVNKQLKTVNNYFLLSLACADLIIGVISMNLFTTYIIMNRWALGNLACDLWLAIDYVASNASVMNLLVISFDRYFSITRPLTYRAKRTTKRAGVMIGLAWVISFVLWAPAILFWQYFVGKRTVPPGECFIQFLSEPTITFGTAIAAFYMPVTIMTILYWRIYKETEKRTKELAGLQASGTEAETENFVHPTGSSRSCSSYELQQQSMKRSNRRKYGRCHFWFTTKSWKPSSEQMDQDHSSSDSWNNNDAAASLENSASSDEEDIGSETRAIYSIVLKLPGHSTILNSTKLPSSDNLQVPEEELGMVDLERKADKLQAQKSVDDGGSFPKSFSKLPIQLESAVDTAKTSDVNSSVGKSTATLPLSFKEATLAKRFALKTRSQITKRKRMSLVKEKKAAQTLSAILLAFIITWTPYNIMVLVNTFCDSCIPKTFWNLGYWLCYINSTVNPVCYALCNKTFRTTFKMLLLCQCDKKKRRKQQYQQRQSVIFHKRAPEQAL

The inhibition is the change of the read-out against control, counted positive when it falls. Broadly, the IC50 is the concentration needed to halve the response being measured. Take `CCCOc1ccc([C@H]2[C@H](C(=O)O)[C@@H](c3ccc4c(c3)OCO4)CN2CC(=O)Nc2c(CC)cccc2CC)cc1` [A-192621]: the inhibition was 16.5% in the assay filed under Rattus norvegicus; 36% in assay [1]; -5.22% in assay [2]; 35.3% in assay [3]; -1.79% in [4]; -5.43% in assay [5]. The inhibition in assay [6] is -5.06%; in [7], 0.5%; in assay [9] it was 10.4%; in assay [10] it was 12.8%; in assay [12], 17.3%; in [13], 5.57%. Also, the inhibition in assay [14] was 6.79%; in assay [15] it was 4.29%; in [16], 27.3%; in assay [17] it was 9.89%; in assay [18], -0.22%. Besides, the figures for the IC50 in assay [8] and in [11] were 0.8 nM (active) and 6.5 nM (active), respectively.
